{"source": "patent US11945779B2", "about": "“Inhibitors of cancer metastasis through inhibiting migration and invasion of cancer cells” (VSpharmtech, priority 2018, dated 2024)", "key": {"[1]": {"system": "pancreatic cancer cell line AsPc-1", "assay": "Trans-well cancer cell migration inhibition, AsPc-1", "assay_type": "cell-based", "conditions": "Homo sapiens, ASPC1; for pIC50: Pancreatic cancer cell line AsPc-1, read-out: Concentration inhibiting migration of cancer cells by 50% (IC50 value)", "protocol": "(§1) In order to analyze cancer cell migration inhibitory activity of CG-608, CG-609 or CG-618 prepared in Examples 1, 2, or 9, cell migration inhibitory activity was measured using a trans-well by targeting a colon cancer cell line DLD-1 (ATCC-CCL-221), pancreatic cancer cell lines AsPc-1 (ATCC-CCL-1682). CFPAC-1 (ATCC-CCL-1918). Panc-1 (ATCC-CCL-1469), and Miapaca-2 (ATCC-CCL-1420), a skin cancer cell line A375-P (ATCC-CCL-3224), lung cancer cell lines HCC-827 (ATCC-CCL-2868), A549 (ATCC-CCL-185), and NCI-H460 (ATCC-CCL-177), a prostate cancer cell line DU145 (ATCC-HTB-81), a stomach cancer cell line NuGC-3 (JCRB0822), and an ovarian cancer cell line SKOV-3 (ATCC-HTB-77).\n(§2) First, the number of DLD-1 cells was measured using a hemocytometer in an RPMI medium without FBS. Thereafter, the trans-well was placed on a 24-well plate and 8×10^4 […] of cells were added. In an empty space with the trans-well on the well plate, […] of an RPM medium having 10% FBS containing CG-608, CG-609, or CG-618 was added and cultured in a CO2 incubator at 37° C. for 16 hours. After culture, […] of crystal violet (5 mg/mL of 20% […] was added to each well of the 24-well plate and the trans-well was dyed at room temperature for 30 minutes. The dyed trans-well was washed with PBS and non-migrated cells were wiped off with cotton swabs. The prepared sample was photographed with an inverted microscope mounted with a digital camera (TE 300, Nikon. Japan) and then the number of migrated cells was counted. The degree of inhibiting cell migration was calculated by Equation 1 for a group treated with the sample compared to a control group (DMSO).\n(§3) In Equation 1, ‘the number of migrated cells treated with sample’ refers to the number of migrated cells measured by treating CG-608 or CG-618 of Example 1, and ‘the number of migrated cells of a control sample’ refers to the number of migrated cells measured by treating only 1% dimethyl sulfoxide (DMSO) instead of the compound."}, "[2]": {"system": "skin cancer cell line A375-P", "assay": "Trans-well cancer cell migration inhibition, A375-P", "assay_type": "cell-based", "conditions": "Homo sapiens, A375P; for pIC50: Skin cancer cell A375-P, read-out: Concentration inhibiting migration of cancer cells by 50% (IC50 value)", "protocol": "as §1, §2, §3"}, "[3]": {"system": "prostate cancer cell line DU145", "assay": "Trans-well cancer cell migration inhibition, DU145", "assay_type": "cell-based", "conditions": "for pIC50: Homo sapiens, DU-145, Prostate cancer cell DU145, read-out: Concentration inhibiting migration of cancer cells by 50% (IC50 value)", "protocol": "as §1, §2, §3"}, "[4]": {"system": "lung cancer cell line HCC-827", "assay": "Trans-well cancer cell migration inhibition, HCC-827", "assay_type": "cell-based", "conditions": "Homo sapiens, HCC827; for pIC50: Lung cancer cell HCC-827, read-out: Concentration inhibiting migration of cancer cells by 50% (IC50 value)", "protocol": "as §1, §2, §3"}, "[5]": {"system": "stomach cancer cell line NuGC-3", "assay": "Trans-well cancer cell migration inhibition, NuGC-3", "assay_type": "cell-based", "conditions": "for pIC50: Homo sapiens, Gastric cancer cell NuGC-3, read-out: Concentration inhibiting migration of cancer cells by 50% (IC50 value)", "protocol": "as §1, §2, §3"}, "normal cells MCF10A [6]": {"system": "normal cells MCF10A", "assay": "Cell migration of normal cells MCF10A", "assay_type": "cell-based", "conditions": "FIG. 2"}, "normal cells MCF10A [7]": {"system": "normal cells MCF10A", "assay": "Cytotoxicity analysis (WST-1), normal cells MCF10A", "assay_type": "cell-based", "conditions": "for Cytotoxicity in normal cells: 1 μM, 5 μM, 10 μM, 48 hours, WST-1, FIG. 2; for Growth of normal cells: FIG. 2", "protocol": "(§4) In order to verify cytotoxicity of CG-608 to CG-610 and CG-613 to CG-618 prepared in Examples 1 to 9, human colon cancer cell line DLD-1 cells (ATCC-CCL-221), pancreatic cancer cell line AsPc-1 cells (ATCC-CRL-1682), and normal cells MCF10A (ATCC-CRL-10317) were cultured in an RPMI medium containing 10% bovine fetal serum (FBS) while maintaining 37° C. and 5% CO2, and then the cells were detached using a 0.05% trypsin-EDTA. 4×10^3 cells calculated by a hematocytometer were inoculated in each well of a 96-well plate containing a 10% FBS containing medium and cultured in a 37° C. incubator containing 5% C2.\n(§5) After 24 hours, the medium of each well was exchanged to a new medium containing a control group (0.1% DMSO) and CG-609 prepared in Example 1 or CG-618 prepared in Example 9 as a representative benproperine derivative at concentrations of 1 μM, 5 μM, and 10 μM. Thereafter, the cells were cultured in an incubator at 37° C. and 5% CO2 for 48 hours. Thereafter, […] of WST-1 (Roche) was added to each well and cultured for 2 hours, and then the absorbance was measured at 450 nm using an ELISA reader (Bio-Rad)."}, "[8]": {"system": "colon cancer cell line DLD-1", "assay": "Cytotoxicity / proliferation analysis (WST-1), DLD-1", "assay_type": "cell-based, human", "conditions": "DLD-1, FIG. 8", "protocol": "as §4, §5"}, "colon cancer cells DLD-1": {"system": "colon cancer cells DLD-1", "assay": "Cancer cell invasion inhibition (Matrigel trans-well), DLD-1", "assay_type": "cell-based", "conditions": "Homo sapiens, FIG. 8, read-out: Inhibition of cell invasion compared with DMSO-treated control", "protocol": "In order to analyze cancer cell invasion inhibitory activity of CG-609 or CG-618 prepared in Example 1 or 9, cell invasion inhibitory activity using a trans-well was measured by targeting colon cancer cell line DLD-1 cells or pancreatic cancer cell line AsPc-1 cells.\nMatrigel was diluted by 1/5 using an RPMI medium without FBS and then […] was put into each trans-well. The cells were coated in a […] for 2 hours. The number of DLD-1 cells was measured using a hemocytometer in an RPMI medium without FBS. Thereafter, the coated trans-well was placed on a 24-well plate and 8×10^4 […] of cells were added. In an empty space of the trans-well on the well plate, […] of an RPMI medium having 10% FBS containing (S)-(−)-benproperine was added and cultured in a CO2 incubator at 37° C. for 16 hours. After culture, […] of crystal violet (5 mg/mL of 20% MeOH) was added to each well of the 24-well plate and the trans-well was dyed at room temperature for 30 minutes. The dyed trans-well was washed with PBS and non-migrated cells were wiped off with cotton swabs. The prepared sample was photographed with an inverted microscope mounted with a digital camera (TE 300, Nikon, Japan), and then the number of migrated cells was counted. The degree of inhibiting cell migration was calculated for a group treated with the sample compared to a control group (DMSO)."}, "[9]": {"assay": "Acute toxicity test for oral administration to rats", "conditions": "rat, in vivo, 1000 mg/kg; SD rats, single oral dose; read-out: Minimum dose (LD50) of oral administration", "protocol": "Six-week-old specific pathogen free (SPF) SD-based rats were divided by two per group and then CG-608, CG-609, or CG-618 prepared in Example 1, 2, or 9 was dissolved in distilled water for injection and orally administered to rats once in a dose of 1000 mg/kg."}}, "note": "pIC50: −log10 of the molar value."}
{"smiles": "CC1CCCCN1C(C)COc1ccccc1Cc1ccccc1", "note": "(racemic) [CG-618, 1-(1-(2-benzylphenoxy)propan-2-yl)-2-methylpiperidine]", "values": [{"measurement": "pIC50", "setting": "[1]", "result": 6.15}, {"measurement": "pIC50", "setting": "[2]", "result": 5.52}, {"measurement": "pIC50", "setting": "[3]", "result": 5.52}, {"measurement": "pIC50", "setting": "[4]", "result": 6.30}, {"measurement": "pIC50", "setting": "[5]", "result": 5.10}, {"measurement": "Cell migration of normal cells", "setting": "normal cells MCF10A [6]", "result": "did not inhibit"}, {"measurement": "Cytotoxicity in normal cells", "setting": "normal cells MCF10A [7]", "result": "did not exhibit cytotoxicity"}, {"measurement": "Growth of normal cells", "setting": "normal cells MCF10A [7]", "result": "did not inhibit"}, {"measurement": "Growth of cancer cells", "setting": "[8]", "result": "did not affect the growth"}, {"measurement": "inhibition at 0.5 µM", "setting": "colon cancer cells DLD-1; DLD-1, 500 nM", "result": "≥ 50", "unit": "%"}, {"measurement": "LD50", "setting": "[9]", "result": "≥ 1000", "unit": "mg/kg"}]}
{"smiles": "C[C@H](COc1ccccc1Cc1ccccc1)N1CCCC[C@@H]1C", "note": "[CG-609, (S)-1-((R)-1-(2-benzylphenoxy)propan-2-yl)-2-methylpiperidine]", "values": [{"measurement": "inhibition at 1 µM", "setting": "[1]; AsPc-1, 1 μM, FIG. 3", "result": "≥ 50", "unit": "%"}, {"measurement": "pIC50", "setting": "[1]", "result": 6.96}, {"measurement": "inhibition at 1 µM", "setting": "[2]; A375-P, 1 μM, FIG. 3", "result": "≥ 50", "unit": "%"}, {"measurement": "pIC50", "setting": "[2]", "result": 6.15}, {"measurement": "Inhibition of cell migration", "setting": "[3]; DU-145, concentration not given, FIG. 3", "result": "≥ 50", "unit": "%"}, {"measurement": "pIC50", "setting": "[3]", "result": 5.70}, {"measurement": "inhibition at 1 µM", "setting": "[4]; HCC-827, 1 μM, FIG. 3", "result": "≥ 50", "unit": "%"}, {"measurement": "pIC50", "setting": "[4]", "result": 6.68}, {"measurement": "pIC50", "setting": "[5]", "result": 5.30}, {"measurement": "Inhibition of cell migration", "setting": "[5]; NuGC-3, concentration not given, FIG. 3", "result": "≥ 50", "unit": "%"}, {"measurement": "Cell migration of normal cells", "setting": "normal cells MCF10A [6]", "result": "did not inhibit"}, {"measurement": "Cytotoxicity in normal cells", "setting": "normal cells MCF10A [7]", "result": "did not exhibit cytotoxicity"}, {"measurement": "Growth of normal cells", "setting": "normal cells MCF10A [7]", "result": "did not inhibit"}, {"measurement": "Growth of cancer cells", "setting": "[8]", "result": "did not affect the growth"}, {"measurement": "inhibition at 0.1 µM", "setting": "colon cancer cells DLD-1; DLD-1, 100 nM", "result": "≥ 50", "unit": "%"}, {"measurement": "LD50", "setting": "[9]", "result": "≥ 1000", "unit": "mg/kg"}]}
